This data set in a line: pH stability study of GLYX-13 150 mg/mL HCl formulations (40° C., 3 weeks), HPLC assay and related substances. The class given is physicochemical. As to the method: Column: Waters Spherisorb ODS2, 3 μm, 4.6×250 mm, Part # PSS832115
Mobile phase A: 2.2 g/L heptanesulfonic acid, 6.7 g/L potassium dihydrogen phosphate, pH 2.5
Mobile phase B: 70/30 Methanol/Water
Column temperature: 40±1° C.
Sample temperature: 4±1° C.
Four formulations were prepared to examine dissolution of the drug based (Table 2). Each formulation was prepared at 35 mL and contained 5.25 g of GLYX-13.
Each formulation was prepared by adding the drug to a beaker and adjusting the volume to approximately 26 mL using purified water. The pH was adjusted using 5 M HCl that was added in small increments. The solution was mixed for 10 minutes after each adjustment and mixed for 30 minutes after reaching the desired pH. The pH of the solution was checked after 30 minutes and adjusted if needed. The solution was adjusted to 35 mL using purified water when a drift in pH was no longer observed. Each formulation was filled into vials (2.5 mL/vial), sealed with a stopper, and capped. The formulations were stored at 40° C. for 3 weeks and samples were removed weekly. All weekly samples were examined for appearance, tested for pH, assay and related substances using the HPLC assay.
Data were analyzed using the appropriate software designed for the assay and impurities HPLC method. Impurity 1 (RRT 0.43) is cyclo-proline-threonine (“diketopiperazine”). Impurity 2 (RRT 0.57) is proline-threonine amide. […]

One compound from patent US20200254050A1, “STABLE COMPOSITIONS OF NEUROACTIVE PEPTIDES” (Naurex Inc., priority 2014, published 2020) can be followed below.

Residues, ends and D or L forms follow the SMILES beside them.

For the compound `CC(O)C(N)C(=O)N1CCCC1C(=O)N1CCCC1C(=O)NC(C(N)=O)C(C)O` (stereo not shown) [GLYX-13] (H-TPPT-NH2; configuration not given here), the “rate of impurity formation at pH 7, fold greater than the rate at pH 4” value is “approximately 6 fold”.
